Measured values taken from PubChem BioAssay (NCI).
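Cells were grown in 96-well plates and exposed to each compound for 48 hours at five concentrations; endpoints were interpolated linearly between bracketing concentrations, or set to the highest concentration if not reached. TGI marks complete inhibition of growth.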

What was measured:
Test in all cases: NCI-60 cell line screen, 48 h
OVCAR-3 ovarian = system: OVCAR-3 ovarian
M14 melanoma = system: M14 melanoma
TK-10 renal = system: TK-10 renal
SK-OV-3 ovarian = system: SK-OV-3 ovarian
OVCAR-5 ovarian = system: OVCAR-5 ovarian
IGROV1 ovarian = system: IGROV1 ovarian
HOP-92 NSCLC = system: HOP-92 NSCLC
NCI-H23 lung = system: NCI-H23 lung
BT-549 breast = system: BT-549 breast
HCC-2998 colon = system: HCC-2998 colon

Cc1ccc2nc(-c3ccccc3)c(N=O)n2c1
TGI (OVCAR-3 ovarian): > 100 µM | TGI (M14 melanoma): > 100 µM | TGI (TK-10 renal): > 100 µM | TGI (SK-OV-3 ovarian): > 100 µM | TGI (OVCAR-5 ovarian): > 100 µM | TGI (IGROV1 ovarian): > 100 µM | TGI (HOP-92 NSCLC): > 100 µM | TGI (NCI-H23 lung): > 100 µM | TGI (BT-549 breast): > 100 µM

Cc1cc(Cc2cc(C)cc(C(C)(C)C)c2O)c(O)c(Cc2cc(C)cc(C(C)(C)C)c2O)c1
TGI (OVCAR-3 ovarian): 10.4 µM | TGI (M14 melanoma): 7.26 µM | TGI (TK-10 renal): 8.59 µM | TGI (SK-OV-3 ovarian): 10.9 µM | TGI (OVCAR-5 ovarian): 14.2 µM | TGI (IGROV1 ovarian): 14 µM | TGI (HOP-92 NSCLC): 9.36 µM | TGI (NCI-H23 lung): 5.34 µM | TGI (BT-549 breast): 10.6 µM

O=c1nc(NC(c2ccccc2)(c2ccccc2)c2ccccc2)ccn1CCNCCn1ccc(NC(c2ccccc2)(c2ccccc2)c2ccccc2)nc1=O
TGI (OVCAR-3 ovarian): 58.3 µM | TGI (M14 melanoma): 69.3 µM | TGI (TK-10 renal): 60.6 µM | TGI (SK-OV-3 ovarian): 46.1 µM | TGI (OVCAR-5 ovarian): > 100 µM | TGI (IGROV1 ovarian): 56.2 µM | TGI (HOP-92 NSCLC): 24.4 µM | TGI (NCI-H23 lung): 26.8 µM | TGI (HCC-2998 colon): 17.1 µM

Cc1ccc([N+](=O)[O-])cc1NC(=O)c1cccc([N+](=O)[O-])c1O
TGI (OVCAR-3 ovarian): 64.6 µM | TGI (M14 melanoma): 56.7 µM | TGI (TK-10 renal): 93.8 µM | TGI (SK-OV-3 ovarian): 54.3 µM | TGI (IGROV1 ovarian): 98.6 µM | TGI (NCI-H23 lung): 48.4 µM

COc1cc2c(cc1OC)[C@H]1C(COC(=O)c3ccccc3)CSC(=Nc3ccccc3)N1CC2 (some centres undefined)
TGI (OVCAR-3 ovarian): > 100 µM | TGI (M14 melanoma): > 100 µM | TGI (TK-10 renal): > 100 µM | TGI (SK-OV-3 ovarian): > 100 µM | TGI (OVCAR-5 ovarian): > 100 µM | TGI (IGROV1 ovarian): > 100 µM | TGI (HOP-92 NSCLC): > 100 µM | TGI (NCI-H23 lung): > 100 µM | TGI (HCC-2998 colon): > 100 µM

CN(C)CCNC(=O)c1cccc2[nH]c(-c3cccnc3)nc12
TGI (OVCAR-3 ovarian): 56.3 µM | TGI (M14 melanoma): 43.8 µM | TGI (TK-10 renal): 53.5 µM | TGI (SK-OV-3 ovarian): 80.3 µM | TGI (OVCAR-5 ovarian): 64.2 µM | TGI (IGROV1 ovarian): > 100 µM | TGI (HOP-92 NSCLC): 53.9 µM | TGI (NCI-H23 lung): 44.9 µM | TGI (HCC-2998 colon): 43.4 µM

C/C=C1/CCC2c3[nH]c4ccccc4c3CCN2C1 (centres undefined)
TGI (OVCAR-3 ovarian): > 100 µM | TGI (M14 melanoma): 33.2 µM | TGI (TK-10 renal): > 100 µM | TGI (SK-OV-3 ovarian): > 100 µM | TGI (OVCAR-5 ovarian): > 100 µM | TGI (IGROV1 ovarian): > 100 µM | TGI (HOP-92 NSCLC): 86.6 µM | TGI (NCI-H23 lung): > 100 µM

CN(C)C=[N+]=[N-]
TGI (OVCAR-3 ovarian): > 100 µM | TGI (M14 melanoma): > 100 µM | TGI (TK-10 renal): > 100 µM | TGI (SK-OV-3 ovarian): > 100 µM | TGI (OVCAR-5 ovarian): > 100 µM | TGI (IGROV1 ovarian): > 100 µM | TGI (HOP-92 NSCLC): > 100 µM | TGI (NCI-H23 lung): > 100 µM | TGI (HCC-2998 colon): > 100 µM

Cc1c(C(=O)CC(=O)C(=O)Nc2ccc(Cl)cc2)[n+](=O)c2ccccc2n1[O-]
TGI (OVCAR-3 ovarian): > 100 µM | TGI (M14 melanoma): > 100 µM | TGI (TK-10 renal): > 100 µM | TGI (SK-OV-3 ovarian): > 100 µM | TGI (OVCAR-5 ovarian): > 100 µM | TGI (IGROV1 ovarian): > 100 µM | TGI (HOP-92 NSCLC): > 100 µM | TGI (NCI-H23 lung): > 100 µM

COc1ccc(S(=O)(=O)N/N=C/c2cc(I)cc([N+](=O)[O-])c2O)cc1OC
TGI (OVCAR-3 ovarian): 66.3 µM | TGI (M14 melanoma): > 100 µM | TGI (TK-10 renal): > 100 µM | TGI (SK-OV-3 ovarian): 92.2 µM | TGI (OVCAR-5 ovarian): > 100 µM | TGI (IGROV1 ovarian): > 100 µM | TGI (HOP-92 NSCLC): 46 µM | TGI (HCC-2998 colon): > 100 µM

C=C1C(=O)OC2C=C(CCC(C)=O)C(C)C(OC(C)=O)CC12 (centres undefined)
TGI (OVCAR-3 ovarian): 26 µM | TGI (M14 melanoma): 20.7 µM | TGI (TK-10 renal): 24.4 µM | TGI (OVCAR-5 ovarian): 29.6 µM | TGI (IGROV1 ovarian): 43.9 µM | TGI (HOP-92 NSCLC): 12.9 µM | TGI (HCC-2998 colon): 21.5 µM

CCCC/C=C1\CCC(C)(CN(C)C)C1=O (centres undefined)
TGI (OVCAR-3 ovarian): > 100 µM | TGI (M14 melanoma): > 100 µM | TGI (TK-10 renal): > 100 µM | TGI (OVCAR-5 ovarian): > 100 µM | TGI (IGROV1 ovarian): > 100 µM | TGI (HOP-92 NSCLC): > 100 µM | TGI (NCI-H23 lung): > 100 µM | TGI (HCC-2998 colon): > 100 µM

CC(=O)OCC(=O)[C@@]12OC(C)(C)O[C@@H]1C[C@H]1[C@@H]3CC=C4C[C@@H](O)CC[C@]4(C)[C@H]3CC[C@@]12C
TGI (OVCAR-3 ovarian): > 100 µM | TGI (M14 melanoma): > 100 µM | TGI (TK-10 renal): > 100 µM | TGI (SK-OV-3 ovarian): > 100 µM | TGI (OVCAR-5 ovarian): > 100 µM | TGI (IGROV1 ovarian): > 100 µM | TGI (NCI-H23 lung): > 100 µM | TGI (BT-549 breast): 96.4 µM

N#CCCN(c1ccc(C=Nc2ccccc2Cl)cc1)S(=O)(=O)c1ccccc1
TGI (OVCAR-3 ovarian): > 100 µM | TGI (M14 melanoma): > 100 µM | TGI (TK-10 renal): > 100 µM | TGI (SK-OV-3 ovarian): > 100 µM | TGI (OVCAR-5 ovarian): > 100 µM | TGI (IGROV1 ovarian): > 100 µM | TGI (HOP-92 NSCLC): > 100 µM | TGI (NCI-H23 lung): > 100 µM | TGI (HCC-2998 colon): > 100 µM

CN1CC[C@]2(C)c3cc(O)ccc3CC3CCCC1C32C (some centres undefined)
TGI (OVCAR-3 ovarian): > 100 µM | TGI (M14 melanoma): > 100 µM | TGI (TK-10 renal): > 100 µM | TGI (SK-OV-3 ovarian): > 100 µM | TGI (OVCAR-5 ovarian): > 100 µM | TGI (IGROV1 ovarian): > 100 µM | TGI (HOP-92 NSCLC): > 100 µM | TGI (NCI-H23 lung): > 100 µM | TGI (HCC-2998 colon): > 100 µM

O=C(O)CCC(NC(=O)c1ccccc1)C(=O)O (centres undefined)
TGI (OVCAR-3 ovarian): > 100 µM | TGI (M14 melanoma): > 100 µM | TGI (TK-10 renal): > 100 µM | TGI (SK-OV-3 ovarian): > 100 µM | TGI (OVCAR-5 ovarian): > 100 µM | TGI (IGROV1 ovarian): > 100 µM | TGI (HOP-92 NSCLC): > 100 µM | TGI (NCI-H23 lung): > 100 µM | TGI (HCC-2998 colon): > 100 µM

O=C(c1ccccc1)[C@@H]1C[C@H](Sc2ccccc2)c2cc(Cl)ccc2N1
TGI (OVCAR-3 ovarian): 52.2 µM | TGI (M14 melanoma): 74.5 µM | TGI (TK-10 renal): 79.6 µM | TGI (OVCAR-5 ovarian): > 100 µM | TGI (IGROV1 ovarian): > 100 µM | TGI (NCI-H23 lung): 64.2 µM | TGI (HCC-2998 colon): 51.8 µM

COc1cc(C(O)C(=O)c2nc3ccc([N+](=O)[O-])cc3[nH]c2=O)ccc1O (centres undefined)
TGI (OVCAR-3 ovarian): > 100 µM | TGI (M14 melanoma): > 100 µM | TGI (TK-10 renal): > 100 µM | TGI (SK-OV-3 ovarian): > 100 µM | TGI (OVCAR-5 ovarian): > 100 µM | TGI (IGROV1 ovarian): > 100 µM | TGI (NCI-H23 lung): > 100 µM | TGI (HCC-2998 colon): > 100 µM
